Columns and labels:
Test in all cases: 2D-TPP in U87 cells (proteome-wide)
[1] = molecular target: T1, host proteins (proteome-wide) (Homo sapiens, UniProt A0AVT1); type: binding; settings: protein A0AVT1 (UBA6)
T1 construct: endogenous in cells; host or cells: U87 cells
T1 sequence (A0AVT1 1-1052): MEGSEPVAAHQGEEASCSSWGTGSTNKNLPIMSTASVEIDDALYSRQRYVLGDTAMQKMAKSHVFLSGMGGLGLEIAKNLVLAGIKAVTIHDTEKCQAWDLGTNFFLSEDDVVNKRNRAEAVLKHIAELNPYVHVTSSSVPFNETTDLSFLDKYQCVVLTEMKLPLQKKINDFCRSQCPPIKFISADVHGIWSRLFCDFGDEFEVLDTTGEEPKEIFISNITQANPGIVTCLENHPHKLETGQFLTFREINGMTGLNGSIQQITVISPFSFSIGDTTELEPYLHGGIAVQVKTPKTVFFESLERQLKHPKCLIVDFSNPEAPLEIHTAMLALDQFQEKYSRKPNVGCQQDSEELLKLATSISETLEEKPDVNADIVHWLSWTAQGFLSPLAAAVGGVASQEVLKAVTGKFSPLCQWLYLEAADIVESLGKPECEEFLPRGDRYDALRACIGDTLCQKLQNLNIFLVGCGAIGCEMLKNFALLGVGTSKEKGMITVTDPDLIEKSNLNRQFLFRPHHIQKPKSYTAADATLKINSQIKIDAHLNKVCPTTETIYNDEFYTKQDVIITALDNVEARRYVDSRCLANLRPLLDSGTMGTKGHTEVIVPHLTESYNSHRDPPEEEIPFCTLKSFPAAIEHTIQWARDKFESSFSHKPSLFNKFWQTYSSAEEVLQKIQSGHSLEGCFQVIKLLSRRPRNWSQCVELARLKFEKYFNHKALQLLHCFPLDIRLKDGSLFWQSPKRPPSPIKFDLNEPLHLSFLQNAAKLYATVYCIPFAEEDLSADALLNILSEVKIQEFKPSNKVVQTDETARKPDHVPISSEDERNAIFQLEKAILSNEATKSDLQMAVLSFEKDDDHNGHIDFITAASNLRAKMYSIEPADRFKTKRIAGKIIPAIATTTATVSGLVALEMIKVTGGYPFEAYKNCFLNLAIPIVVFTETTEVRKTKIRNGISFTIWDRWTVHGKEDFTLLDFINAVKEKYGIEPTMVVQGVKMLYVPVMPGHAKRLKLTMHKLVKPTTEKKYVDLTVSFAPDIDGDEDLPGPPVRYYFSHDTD

[2] = tested on: host proteins (proteome-wide); type: binding, Homo sapiens; settings: protein A0A087WUL8 (NBPF19¦NBPF26¦NBPF1¦NBPF20¦NBPF8¦NBPF12¦NBPF14)
[3] = molecular target: T2, host proteins (proteome-wide) (Homo sapiens, UniProt A0FGR8); type: binding
T2 sequence (A0FGR8 1-921): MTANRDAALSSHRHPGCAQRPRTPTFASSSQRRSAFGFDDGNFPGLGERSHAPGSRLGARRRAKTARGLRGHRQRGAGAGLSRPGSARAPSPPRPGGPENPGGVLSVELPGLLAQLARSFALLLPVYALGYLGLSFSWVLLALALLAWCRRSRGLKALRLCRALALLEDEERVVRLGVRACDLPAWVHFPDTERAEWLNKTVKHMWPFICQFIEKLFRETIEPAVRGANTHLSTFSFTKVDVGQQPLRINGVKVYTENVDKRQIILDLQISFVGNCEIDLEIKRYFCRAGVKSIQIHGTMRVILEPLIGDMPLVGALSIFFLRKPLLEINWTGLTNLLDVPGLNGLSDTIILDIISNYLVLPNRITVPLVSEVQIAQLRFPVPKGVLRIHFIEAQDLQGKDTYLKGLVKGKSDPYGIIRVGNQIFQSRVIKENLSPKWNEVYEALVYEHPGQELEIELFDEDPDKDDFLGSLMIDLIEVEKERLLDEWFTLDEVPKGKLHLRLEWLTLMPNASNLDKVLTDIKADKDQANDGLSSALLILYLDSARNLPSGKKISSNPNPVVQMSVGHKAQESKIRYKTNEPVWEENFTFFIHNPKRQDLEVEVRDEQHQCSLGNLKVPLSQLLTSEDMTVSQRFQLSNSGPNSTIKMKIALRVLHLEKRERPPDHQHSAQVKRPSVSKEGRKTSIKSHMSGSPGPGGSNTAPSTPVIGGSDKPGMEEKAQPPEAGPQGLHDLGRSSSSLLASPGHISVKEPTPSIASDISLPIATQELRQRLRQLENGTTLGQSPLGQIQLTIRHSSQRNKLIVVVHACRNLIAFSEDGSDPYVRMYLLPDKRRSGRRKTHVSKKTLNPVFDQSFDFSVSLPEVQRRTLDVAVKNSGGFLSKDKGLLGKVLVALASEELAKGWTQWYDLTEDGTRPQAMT

Question: Which results are given for CCOC(=O)c1cnn(-c2cccc3c2[nH]c(=O)n3C2CCN(C(=O)Nc3ccc(I)cc3)CC2)c1 [TH6744, ethyl 1-(1-(1-((4-iodophenyl)carbamoyl)piperidin-4-yl)-2-oxo-2,3-dihydro-1H-benzo[d]imidazol-4-yl)-1H-pyrazole-4-carboxylate]?
Answer: EC50 ([1]; temperature 51, Set2): 890 nM; norm_rel_fc_protein_1_unmodified ([1]; temperature 51, dose 1, Set2): 1.349; norm_rel_fc_protein_3_unmodified ([1]; temperature 51, dose 3, Set2): 1.572; norm_rel_fc_protein_10_unmodified ([1]; temperature 51, dose 10, Set2): 1.5768; norm_rel_fc_protein_30_unmodified ([1]; temperature 51, dose 30, Set2): 1.557; pec50 ([2]; temperature 45, Set1): 5.615; norm_rel_fc_protein_1_unmodified ([2]; temperature 45, dose 1, Set1): 0.9697; norm_rel_fc_protein_3_unmodified ([2]; temperature 45, dose 3, Set1): 0.761; norm_rel_fc_protein_10_unmodified ([2]; temperature 45, dose 10, Set1): 0.63; norm_rel_fc_protein_30_unmodified ([2]; temperature 45, dose 30, Set1): 0.6272; pec50 ([3]; protein A0FGR8 (ESYT2), temperature 54, Set2): 5.517; norm_rel_fc_protein_1_unmodified ([3]; protein A0FGR8 (ESYT2), temperature 54, dose 1, Set2): 0.9139; norm_rel_fc_protein_3_unmodified ([3]; protein A0FGR8 (ESYT2), temperature 54, dose 3, Set2): 0.7618; norm_rel_fc_protein_10_unmodified ([3]; protein A0FGR8 (ESYT2), temperature 54, dose 10, Set2): 0.587; norm_rel_fc_protein_30_unmodified ([3]; protein A0FGR8 (ESYT2), temperature 54, dose 30, Set2): 0.5111; pec50 ([3]; protein A0FGR8 (ESYT2), temperature 57, Set2): 5.71; norm_rel_fc_protein_1_unmodified ([3]; protein A0FGR8 (ESYT2), temperature 57, dose 1, Set2): 0.8819; norm_rel_fc_protein_3_unmodified ([3]; protein A0FGR8 (ESYT2), temperature 57, dose 3, Set2): 0.7127; norm_rel_fc_protein_10_unmodified ([3]; protein A0FGR8 (ESYT2), temperature 57, dose 10, Set2): 0.531; norm_rel_fc_protein_30_unmodified ([3]; protein A0FGR8 (ESYT2), temperature 57, dose 30, Set2): 0.5493; pec50 ([3]; protein A0FGR8-2 (ESYT2), temperature 54, Set2): 5.517; norm_rel_fc_protein_1_unmodified ([3]; protein A0FGR8-2 (ESYT2), temperature 54, dose 1, Set2): 0.9139; norm_rel_fc_protein_3_unmodified ([3]; protein A0FGR8-2 (ESYT2), temperature 54, dose 3, Set2): 0.7618; norm_rel_fc_protein_10_unmodified ([3]; protein A0FGR8-2 (ESYT2), temperature 54, dose 10, Set2): 0.587; norm_rel_fc_protein_30_unmodified ([3]; protein A0FGR8-2 (ESYT2), temperature 54, dose 30, Set2): 0.5111

— article PMC7762994 (Viruses, 2020)
